Results: ChEMBL document CHEMBL4118096, “Branched Peptides: Acridine and Boronic Acid Derivatives as Antimicrobial Agents” (ACS Med Chem Lett, 2017)
Values after ≈ are worked out from the molar mass of the structure shown. Where a SMILES comes first, the peptide text is derived from it. The star is where a group is joined. Benzoyl(4-B(OH)2) = O=C(c1ccc(B(O)O)cc1)*; Acridin9yl = c1ccc2c(*)c3ccccc3nc2c1

Legend:
Staphylococcus aureus [1] = assay: Antimicrobial activity against methicillin-resistant Staphylococcus aureus ATCC 43300 measured on day 4 by broth microdilution method; type: functional; settings: ATCC 43300, 96 h
Staphylococcus aureus [2] = assay: Antimicrobial activity against Staphylococcus aureus ATCC 6538 measured on day 4 by broth microdilution method; type: functional; settings: ATCC 6538, 96 h
Aspergillus niger = assay: Antifungal activity against Aspergillus niger measured on day 4 by broth microdilution method; type: functional; settings: 96 h
[3] = tested on: Mycolicibacterium smegmatis; assay: Antimicrobial activity against Mycobacterium smegmatis ATCC 607 measured on day 4 by broth microdilution method; type: functional; settings: ATCC 607, 96 h
U-87 MG = assay: Cytotoxicity against human U87 cells assessed as decrease in cell viability at 10 uM after 24 hrs by MTT assay; type: cell-based; settings: u-87mg atcc
Candida albicans [4] = assay: Antifungal activity against Candida albicans measured on day 4 by broth microdilution method; type: functional; settings: 96 h
Escherichia coli = assay: Antimicrobial activity against Escherichia coli C ATCC 13706 measured on day 4 by broth microdilution method; type: functional; settings: C ATCC 13706, 96 h
Saccharomyces cerevisiae = assay: Induction of membrane lysis activity in Saccharomyces cerevisiae assessed as maltase release at MIC after 60 mins relative to control; type: functional
Erythrocyte = assay: Hemolytic activity in sheep RBC measured after 15 mins; type: ADME, cell-based, Ovis aries; settings: 0.25 h
Candida albicans [5] = assay: Antibiofilm activity against Candida albicans VT1406 after 24 hrs by XXT/PMS dye based assay; type: functional; settings: VT1406, 24 h
[6] = Safety index, ratio of EC10 for hemolytic activity in sheep RBC to MIC for Candida albicans; type: toxicity; settings: sheep red blood cells
Candida albicans [7] = assay: Antifungal activity against Candida albicans VT1406 in cell suspension after 24 hrs by XXT/PMS dye based assay; type: functional; settings: VT1406, 24 h
Candida albicans [8] = assay: Induction of membrane lysis in Candida albicans assessed as maltase release at MIC after 60 mins relative to control; type: functional

MIC (Candida albicans [5])	MIC (Candida albicans [7])	SMILES	MIC (Staphylococcus aureus [1])	MIC (Staphylococcus aureus [2])	MIC (Aspergillus niger)	MIC [3]	Activity (U-87 MG)	MIC (Candida albicans [4])	MIC (Escherichia coli)	Activity (Saccharomyces cerevisiae)	EC10 (Erythrocyte)	selectivity ratio [6]	Activity (Candida albicans [8])
–	–	NCCCC[C@H](NC(=O)[C@H](CCCCNc1c2ccccc2nc2ccccc12)NC(=O)[C@H](CCCCNc1c2ccccc2nc2ccccc12)NC(=O)[C@H](CCCCN)NC(=O)[C@H](CCCCN)NC(=O)[C@H](CCCCN)NC(=O)[C@H](CCCCN)NC(=O)[C@H](CCCCN)NC(=O)[C@@H](N)CCCCN)C(=O)N[C@@H](Cc1ccc(O)cc1)C(=O)O (H-KKKKKKK(Acridin9yl)K(Acridin9yl)KY-OH)	62.5 µg/mL (≈ 37 µM)	1 µg/mL (≈ 0.592 µM)	62.5 µg/mL (≈ 37 µM)	16 µg/mL (≈ 9.47 µM)	Non-Toxic	4 µg/mL (≈ 2.37 µM)	8 µg/mL (≈ 4.74 µM)	–	–	–	–
–	–	CC(C)C[C@H](NC(=O)[C@H](CCCCN)NC(=O)[C@H](CCCCN)NC(=O)[C@H](CCCCN)NC(=O)[C@H](CCCCNc1c2ccccc2nc2ccccc12)NC(=O)[C@H](CCCCN)NC(=O)[C@H](CCCCN)NC(=O)[C@@H](N)CCCCNc1c2ccccc2nc2ccccc12)C(=O)N[C@@H](CCCCNC(=O)c1ccc(B(O)O)cc1)C(=O)N[C@@H](Cc1ccc(O)cc1)C(=O)O (H-K(Acridin9yl)KKK(Acridin9yl)KKKLK(Benzoyl(4-B(OH)2))Y-OH)	2 µg/mL (≈ 1.1 µM)	1 µg/mL (≈ 0.549 µM)	32 µg/mL (≈ 17.6 µM)	16 µg/mL (≈ 8.78 µM)	Non-Toxic	8 µg/mL (≈ 4.39 µM)	4 µg/mL (≈ 2.2 µM)	–	–	–	–
62.5 µg/mL (≈ 41.8 µM)	1 µg/mL (≈ 0.668 µM)	CC(C)C[C@H](NC(=O)[C@H](CCCCNc1c2ccccc2nc2ccccc12)NC(=O)[C@H](CCCCN)NC(=O)[C@H](CCCCN)NC(=O)[C@H](CCCCN)NC(=O)[C@H](CCCCN)NC(=O)[C@H](CCCCN)NC(=O)[C@@H](N)CCCCN)C(=O)N[C@@H](CCCCN)C(=O)N[C@@H](Cc1ccc(O)cc1)C(=O)O (H-KKKKKKK(Acridin9yl)LKY-OH)	–	16 µg/mL (≈ 10.7 µM)	62.5 µg/mL (≈ 41.8 µM)	16 µg/mL (≈ 10.7 µM)	Non-Toxic	1 µg/mL (≈ 0.668 µM)	16 µg/mL (≈ 10.7 µM)	0.95%	175 µg/mL (≈ 117 µM)	> 100	1%
